Assay results taken from patent US4840969A, “N-substituted benzamides” (Bayer Aktiengesellschaft, priority 1986, dated 1989).

Columns and labels:
LD50 on rats (oral) = conditions: rat, in vivo, stomach tube, in polyethylene glycol Lutrol, read-out: LD50 (mg of active compound/kg of body weight)
Experimental: LD50 values on rats (oral)
The values were determined in the customary manner.

Meloidogyne incognita = assay: Critical concentration test/nematodes, Meloidogyne incognita (lettuce in infested soil); type: in vivo; conditions: active compound concentration of 1.25 ppm-10 ppm in soil; lettuce root galls after four weeks; 27° C.
Experimental: Critical concentration test/nematodes
Test nematode: Meloidogyne incognita
(§1) Solvent: 3 parts by weight of acetone
(§2) Emulsifier: 1 part by weight of alkylaryl polyglycol ether
The treated soil is filled into pots, lettuce is sown and the pots are kept at a greenhouse temperature of 27° C.

Globodera rostochiensis = assay: Critical concentration test, Globodera rostochiensis (potatoes in infested soil); type: in vivo; conditions: active compound concentrations of 2.5, 5 and 10 ppm in soil; potato root cysts after six weeks; 18° C.
Experimental: Critical concentration test
Test nematode: Globodera rostochiensis
as §1, §2
The treated soil is filled into pots, potatoes are planted and the pots are kept at a greenhouse temperature of 18° C.

[1] = known from U.S. Pat. No. 2,978,479 and Pesticide Manual; cited from earlier work

SMILES	LD50 (LD50 on rats (oral))	degree of effectiveness (Meloidogyne incognita)	degree of effectiveness (Globodera rostochiensis)	insecticidal and nematicidal properties [1]
CC(NC(=O)c1c(F)cccc1F)C(F)(F)F (stereo not drawn) [drawing 61]	> 1000 mg/kg	–	–	–
CN(CC(F)(F)F)C(=O)c1c(F)cccc1F [Example 6]	–	95%	–	–
CC(NC(=O)c1c(F)cccc1F)C(F)(F)F (stereo not drawn) [Example 1, 2,6-difluorobenzoic acid N-(1,1,1-trifluoro-prop-2-yl)-amide]	–	95%	95%	–
O=C(NC1(C(F)(F)F)CC1)c1c(F)cccc1F [Example 33]	–	95%	95%	–
CCOP(=O)(NC(C)C)Oc1ccc(SC)c(C)c1 (stereo not drawn) [fenamiphos, O-ethyl-O-(3-methyl-4-methylthio-phenyl)-N-isopropyl-phosphoric acid ester-amide, reference compound]	10 to 20 mg/kg	95%	–	very good
O=C(NCC(F)(F)F)c1c(F)cccc1F [Example 5]	–	–	95%	–
CC(NC(=O)c1ccccc1Cl)C(F)(F)F (stereo not drawn) [Example 29]	–	95%	95%	–
